Measurements: patent US8912163B2, “Compositions for the treatment or prophylaxis of viral infections” (Katholieke Universiteit Leuven, priority 2007, dated 2014)
Values after ≈ are worked out from the molar mass of the structure shown. Like-named read-outs stand apart in the source and are kept apart here.

Experiments:
[1] = tested on: VZV TK+ YS; test: VZV plaque reduction in HEL cells, TK+ strain YS; assay type: cell-based, Varicella Zoster virus; conditions: 5 days
Procedure: (§1) VZV-drug susceptibility assays were performed on confluent HEL cells in 96-well microtiter plates. Monolayers were infected with 20 PFU of cell-associated virus per well. For each assay, virus controls (infected-untreated cells) were included. After a 2-hour incubation period, the virus inoculum was removed and the media replaced by the different dilutions (in duplicate) of the tested molecules. Serial dilutions of test compounds were incubated with the infected monolayers for 5 days. After the 5-day incubation period, the cells were fixed and stained with Giemsa, and the level of virus-induced cytopathic effect was determined by counting the number of plaques for each dilution.

[2] = tested on: VZV TK+ OKA; test: VZV plaque reduction in HEL cells, TK+ strain OKA; assay type: cell-based, Varicella Zoster virus
Procedure: as §1

[3] = tested on: VZV; test: Anti-VZV activity in VZV-infected HEL cell cultures (general statements); assay type: cell-based, Varicella Zoster virus; conditions: HEL cells
Procedure: The objective of this study was to compare the antiviral activity of Compounds 1, 3, 5, 7 and 9 in HEL cells inoculated with VZV strains. Antiviral activity was assessed as the ability of Compounds 1, 3, 5, 7 and 9 to reduce viral plaque formation after incubation periods of 5 days as compared to untreated control cultures.
as §1

[4] = in vitro; assay type: cell-based; conditions: human
[5] = tested on: HEL cells; test: in vitro; assay type: cell-based
[6] = tested on: VZV TK− 07/1; test: VZV plaque reduction in HEL cells, TK- strain 07/1; assay type: cell-based, Varicella Zoster virus
Procedure: as §1

[7] = Water-solubility by HPLC; assay type: physicochemical; conditions: deionised water, room temperature
Procedure: HPLC was carried out on a Waters 484 System using Novapack C18 reverse phase column. Flow rate: 1 mL/min. Detection: UV 254 nm. […] The samples were centrifuged at 14.000 rpm in an Eppendorf micro-centrifuge for 1.5 min at room temperature. An aliquot of the clear supernatant was removed and diluted to a concentration within the range of a five-point standard curve. Water-solubility was calculated from each peak area of the above solution by HPLC compared with the sample dissolved in acetonitrile, the concentration of which is already known.

[8] = target: purified CD26 (Homo sapiens, UniProt P27487); test: Conversion (substrate activity) by purified CD26; assay type: biochemical; conditions: purified CD26 (1.5 mU in PBS), 37° C.
purified CD26, sequence (P27487 whole entry, species assumed): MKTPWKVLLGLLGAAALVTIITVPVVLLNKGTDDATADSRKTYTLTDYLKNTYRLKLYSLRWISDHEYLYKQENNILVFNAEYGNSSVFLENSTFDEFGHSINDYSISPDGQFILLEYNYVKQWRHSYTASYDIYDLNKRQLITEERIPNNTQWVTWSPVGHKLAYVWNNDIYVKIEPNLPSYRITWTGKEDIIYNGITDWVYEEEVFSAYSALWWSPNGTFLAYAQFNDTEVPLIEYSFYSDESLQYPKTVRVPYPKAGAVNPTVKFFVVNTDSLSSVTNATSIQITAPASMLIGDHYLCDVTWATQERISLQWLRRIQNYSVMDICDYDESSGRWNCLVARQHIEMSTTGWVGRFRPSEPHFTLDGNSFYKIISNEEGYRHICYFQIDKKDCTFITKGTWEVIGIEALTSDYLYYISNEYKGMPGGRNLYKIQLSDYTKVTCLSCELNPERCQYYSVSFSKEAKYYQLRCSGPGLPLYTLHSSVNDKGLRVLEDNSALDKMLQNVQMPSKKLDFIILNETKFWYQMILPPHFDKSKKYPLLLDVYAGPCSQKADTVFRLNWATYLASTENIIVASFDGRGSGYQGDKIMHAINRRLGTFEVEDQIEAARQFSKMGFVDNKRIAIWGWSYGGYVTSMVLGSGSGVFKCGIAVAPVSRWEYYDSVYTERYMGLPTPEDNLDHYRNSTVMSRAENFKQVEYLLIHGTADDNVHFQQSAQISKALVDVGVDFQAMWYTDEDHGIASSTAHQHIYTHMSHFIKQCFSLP
Procedure: A variety of test compounds have been evaluated for their substrate activity against purified CD26, human serum (HS), and bovine serum (BS) in Eppendorf tubes. The 400 μL reaction mixture contained 50 μM of test compound in PBS (containing 0.1% DMSO). The reaction was started by the addition of purified CD26 (1.5 mU) or 20% of HS (in PBS) or BS (in PBS) at 37° C. At different time points, 100 μL was withdrawn from the reaction mixture, added to 200 μL methanol, and put on ice for ˜10 min. Then, the mixture was centrifuged at 13,000 rpm for 5 min at 4° C. and 250 μL of supernatant was analyzed by HPLC on a reverse phase RP-8 column, using following gradients: […]
(§2) Gradient A (Buffer A: 50 mM NaH2PO4+5 mM heptane-sulfonic acid pH 3.2; buffer B: acetonitrile): 2 min 98% A+2% B; 6 min linear gradient to 80% A+20% B; 2 min linear gradient to 75% A+25% B; 2 min linear gradient to 65% A+35% B; 18 min linear gradient to 50% A+50% B; 5 min 50% A+50% B; 5 min linear gradient to 98% A+2% B; 5 min equilibration at 98% A+2% B.
(§3) Gradient B: 2 min 98% A+2% B; 6 min linear gradient to 80% A+20% B; 2 min linear gradient to 75% A+25% B; 2 min linear gradient to 65% A+35% B; 8 min linear gradient to 50% A+50% B; 10 min 50% A+50% B; 10 min linear gradient to 20% A+80% B; 5 min 20% A+80% B; 15 min linear gradient to 98% A+2% B; 5 min 98% A+2% B.

[9] = Conversion in human serum (10%); assay type: in vitro ADME; conditions: Human serum 10% in PBS, 37° C.
Procedure: (§4) A variety of test compounds have been evaluated for their substrate activity against purified CD26, human serum (HS), and bovine serum (BS) in Eppendorf tubes. The 400 μL reaction mixture contained 50 μM of test compound in PBS (containing 0.1% DMSO). […] At different time points, 100 μL was withdrawn from the reaction mixture, added to 200 μL methanol, and put on ice for ˜10 min. Then, the mixture was centrifuged at 13,000 rpm for 5 min at 4° C. and 250 μL of supernatant was analyzed by HPLC on a reverse phase RP-8 column, using following gradients: […]
as §2, §3

[10] = Conversion in bovine serum (10%); assay type: in vitro ADME; conditions: Bovine serum 10% in PBS, 37° C.
Procedure: as §4, §2, §3

[11] = Oral bioavailability in mice: Compound 1 in plasma after single oral gavage; assay type: in vivo; conditions: for Compound 1 in plasma (area under the curve (HPLC)): dose equivalent to 25 mg/kg of Compound 1, relative peak area
Description: The results of this study are shown in Table 1 below and in FIG. 1 of the accompanying drawings.

[12] = Human alphaherpesvirus 3, HEL, 120 h, Table 3b, plaque formation
[13] = Human alphaherpesvirus 3, HEL, 120 h, read-out: EC50 VZV TK+ OKA, Table 3b, plaque formation, 5 days
[14] = Human alphaherpesvirus 3, HEL, 120 h, read-out: EC50 VZV TK− 07/1, Table 3b, plaque formation, 5 days

CCCCCc1ccc(-c2cc3cn(C4CC(OC(=O)C(NC(=O)C5CCCN5C(=O)C(N)C(C)C)C(C)C)C(CO)O4)c(=O)nc3o2)cc1 [Compound 9, 3-[2′-Deoxy-3′-O-(valyl-prolyl-valyl)-β-D-ribofuranosyl]-6-(p-pentylphenyl)-2,3-dihydrofuro[2,3-d]pyrimidin-2-one]
EC50 [1, 12]: 0.016 µM | EC50 [2, 13]: 0.017 µM | antiviral activity in VZV-infected HEL cell cultures (in words) [3]: found to be active | CC50 [4]: > 5 µM | cytotoxic or cytostatic (in words) [5]: Neither of them is cytotoxic or cytostatic | MCC ([5]; human): 20 µM | antiviral activity against VZV/TK− (in words) [6]: lose antiviral activity | EC50 [6, 14]: > 5 µM

CCCCCc1ccc(-c2cc3cn([C@H]4CC(O)[C@@H](COC(=O)C(N)C(C)C)O4)c(=O)nc3o2)cc1 (stereo partly shown) [Compound 5, reference compound]
EC50 ([1]; Human alphaherpesvirus 3, HEL, 120 h, Table 3, plaque formation): 0.03 µM | solubility ([7]; thermodynamic from solid, overnight, means of three determinations, read-out: Solubility in water): 211 ± 44 µg/mL (≈ 424 µM) | EC50 ([2]; Human alphaherpesvirus 3, HEL, 120 h, read-out: EC50 VZV TK+ OKA, Table 3, plaque formation, 5 days): 0.014 µM | antiviral activity in VZV-infected HEL cell cultures (in words) [3]: active | CC50 [4]: > 0.5 µM | cytotoxic or cytostatic (in words) [5]: Neither of them is cytotoxic or cytostatic | MCC ([5]; human): >1 µM | antiviral activity against VZV/TK− (in words) [6]: lose antiviral activity | EC50 ([6]; Human alphaherpesvirus 3, HEL, 120 h, read-out: EC50 VZV TK− 07/1, Table 3, plaque formation, 5 days): > 1 µM

CCCCCc1ccc(-c2cc3cn([C@H]4C[C@H](O)[C@@H](COC(=O)[C@@H](NC(=O)[C@@H]5CCCN5C(=O)[C@@H](N)C(C)C)C(C)C)O4)c(=O)nc3o2)cc1 [Compound 7]
Formation of hydrolysis products (%): Compound 1 ([8]; 0 hr): 0% | Formation of hydrolysis products (%): Compound 5 ([8]; 0 hr): 0% | Formation of hydrolysis products (%): Compound 7 ([8]; 0 hr): 100% | Formation of hydrolysis products (%): Compound 1 ([8]; 2 hr): 49.4% | Formation of hydrolysis products (%): Compound 5 ([8]; 2 hr): 50.6% | Formation of hydrolysis products (%): Compound 7 ([8]; 2 hr): 0% | Formation of hydrolysis products (%): Compound 1 ([8]; 6 hr): 62.9% | Formation of hydrolysis products (%): Compound 5 ([8]; 6 hr): 37.1% | Formation of hydrolysis products (%): Compound 7 ([8]; 6 hr): 0% | Formation of hydrolysis products (%): Compound 1 ([8]; 20 hr): 75.5% | Formation of hydrolysis products (%): Compound 5 ([8]; 20 hr): 24.5% | Formation of hydrolysis products (%): Compound 7 ([8]; 20 hr): 0% | Formation of hydrolysis products (%): Compound 1 ([9]; 0 hr): 0% | Formation of hydrolysis products (%): Compound 5 ([9]; 0 hr): 0% | Formation of hydrolysis products (%): Compound 7 ([9]; 0 hr): 100% | Formation of hydrolysis products (%): Compound 1 ([9]; 1 hr): 57.6% | Formation of hydrolysis products (%): Compound 5 ([9]; 1 hr): 11.4% | Formation of hydrolysis products (%): Compound 7 ([9]; 1 hr): 31% | Formation of hydrolysis products (%): Compound 1 ([9]; 4 hr): 73.4% | Formation of hydrolysis products (%): Compound 5 ([9]; 4 hr): 21.5% | Formation of hydrolysis products (%): Compound 7 ([9]; 4 hr): 5.0% | Formation of hydrolysis products (%): Compound 1 ([9]; 20 hr): 88.5% | Formation of hydrolysis products (%): Compound 5 ([9]; 20 hr): 9.7% | Formation of hydrolysis products (%): Compound 7 ([9]; 20 hr): 1.8% | Formation of hydrolysis products (%): Compound 1 ([10]; 0 hr): 0% | Formation of hydrolysis products (%): Compound 5 ([10]; 0 hr): 0% | Formation of hydrolysis products (%): Compound 7 ([10]; 0 hr): 100% | Formation of hydrolysis products (%): Compound 1 ([10]; 1 hr): 20.3% | Formation of hydrolysis products (%): Compound 5 ([10]; 1 hr): 19.9% | Formation of hydrolysis products (%): Compound 7 ([10]; 1 hr): 59.8% | Formation of hydrolysis products (%): Compound 1 ([10]; 4 hr): 44.8% | Formation of hydrolysis products (%): Compound 5 ([10]; 4 hr): 34.7% | Formation of hydrolysis products (%): Compound 7 ([10]; 4 hr): 20.4% | Formation of hydrolysis products (%): Compound 1 ([10]; 20 hr): 74.4% | Formation of hydrolysis products (%): Compound 5 ([10]; 20 hr): 21% | Formation of hydrolysis products (%): Compound 7 ([10]; 20 hr): 3.3% | EC50 ([1]; Table 3, plaque formation): 0.01 µM | water-solubility [7]: 1270 µg/mL | water-solubility relative to Compound 1 [7]: more than 57 fold | Solubility in water ([7]; overnight, means of three determinations): 1270 ± 50 µg/mL (≈ 1830 µM) | EC50 ([2]; Table 3, plaque formation, 5 days, read-out: EC50 VZV TK+ OKA): 0.012 µM | antiviral activity in VZV-infected HEL cell cultures (in words) [3]: found to be active | Compound 1 in plasma (area under the curve (HPLC)) ([11]; 15 min after oral gavage): 32 | Compound 1 in plasma (area under the curve (HPLC)) ([11]; 30 min after oral gavage): 52 | Compound 1 in plasma (area under the curve (HPLC)) ([11]; 45 min after oral gavage): 87 | Compound 1 in plasma (area under the curve (HPLC)) ([11]; 60 min after oral gavage): 44 | Compound 1 in plasma (area under the curve (HPLC)) ([11]; 120 min after oral gavage): 14 | Compound 1 in plasma (area under the curve (HPLC)) ([11]; 180 min after oral gavage): 6.2 | increase of the oral bioavailability of Compound 1 (as estimated by the AUC values) ([11]; oral gavage, versus dosing Compound 1): approximately 12 fold | CC50 [5]: > 0.5 µM | MCC [5]: >1 µM | cytotoxic or cytostatic (in words) [5]: Neither of them is cytotoxic or cytostatic | antiviral activity against VZV/TK− (in words) [6]: lose antiviral activity | EC50 ([6]; Table 3, plaque formation, 5 days, read-out: EC50 VZV TK− 07/1): > 1 µM

CCCCCc1ccc(-c2cc3cn([C@H]4CC(OC(=O)C(N)C(C)C)[C@@H](CO)O4)c(=O)nc3o2)cc1 (stereo partly drawn) [Compound 3, 3-[2′-Deoxy-3′-O-valyl-β-D-ribofuranosyl]-6-(p-pentylphenyl)-2,3-dihydrofuro[2,3-d]pyrimidin-2-one, reference compound]
EC50 [1, 12]: 0.004 µM | EC50 [2, 13]: 0.007 µM | antiviral activity in VZV-infected HEL cell cultures (in words) [3]: active | CC50 [4]: > 5 µM | cytotoxic or cytostatic (in words) [5]: Neither of them is cytotoxic or cytostatic | MCC ([5]; human): 20 µM | antiviral activity against VZV/TK− (in words) [6]: lose antiviral activity | EC50 [6, 14]: > 5 µM
